In US20200405697A1, “Antitumor Agent” (Taiho Pharmaceutical Co., Ltd, priority 2017, published 2020):

target: T1, human RNR (histidine tagged human M1 and human M2 proteins) (Homo sapiens, UniProt P23921); assay: Human RNR inhibition effect (dCDP formation from CDP); format: biochemical; conditions: 10 μM CDP, 37° C. for 30 minutes, read-out: RNR inhibitory activity IC50
T1 construct: made in house; host or cells: Escherichia coli
T1 sequence (P23921 1-792): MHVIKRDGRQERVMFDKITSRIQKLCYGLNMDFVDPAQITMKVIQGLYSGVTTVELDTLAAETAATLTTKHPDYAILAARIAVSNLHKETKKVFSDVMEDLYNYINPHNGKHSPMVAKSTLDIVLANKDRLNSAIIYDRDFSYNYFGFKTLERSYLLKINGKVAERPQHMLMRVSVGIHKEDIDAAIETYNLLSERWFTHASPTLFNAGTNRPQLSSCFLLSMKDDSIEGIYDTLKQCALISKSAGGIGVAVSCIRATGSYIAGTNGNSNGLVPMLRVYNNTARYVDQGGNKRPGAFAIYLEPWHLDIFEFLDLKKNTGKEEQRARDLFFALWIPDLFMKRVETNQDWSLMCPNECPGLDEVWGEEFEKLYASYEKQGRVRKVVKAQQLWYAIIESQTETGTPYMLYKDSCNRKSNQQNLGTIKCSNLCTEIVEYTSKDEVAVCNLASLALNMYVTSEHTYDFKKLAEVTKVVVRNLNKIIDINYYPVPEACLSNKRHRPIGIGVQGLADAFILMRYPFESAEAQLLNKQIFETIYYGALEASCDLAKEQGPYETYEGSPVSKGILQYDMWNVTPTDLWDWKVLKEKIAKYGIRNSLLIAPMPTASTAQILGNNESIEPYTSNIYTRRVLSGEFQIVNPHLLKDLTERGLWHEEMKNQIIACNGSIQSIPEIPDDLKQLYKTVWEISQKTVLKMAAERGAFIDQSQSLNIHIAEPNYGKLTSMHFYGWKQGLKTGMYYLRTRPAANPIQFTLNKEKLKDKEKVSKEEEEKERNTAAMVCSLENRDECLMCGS
Method in brief: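 His-tagged human M1 (isoform 1) and N-terminal 59-aa-truncated M2 (isoform 2), E. coli-expressed, Ni-purified, preincubated 20 min with compound (1% DMSO). Reaction with 10 μM CDP, 2 mM ATP, 0.24 mM NADPH, 6 mM DTT, 4 mM Mg acetate, 100 mM KCl, 50 mM HEPES pH 7.2, 30 min at 37° C. dCDP formed quantified by reverse-phase HPLC after heat stop.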

| SMILES | IC50 [nM] |
| --- | --- |
| Cc1cc(S(=O)(=O)N[C@H](c2n[nH]c(=O)o2)[C@H](C)c2c(F)ccc(C)c2C)c(C(N)=O)cc1Cl [Example 257, 5-chloro-2-(N-((1S,2R)-2-(6-fluoro-2,3-dimethylphenyl)-1-(5-oxo-4,5-dihydro-1,3,4-oxadiazol-2-yl)propyl)sulfamoyl)-4-methylbenzamide] | 100 |
| Cc1c(-c2cnn(C)c2)ccc(F)c1[C@@H](C)[C@H](NS(=O)(=O)c1ccc(Cl)cc1C(N)=O)c1n[nH]c(=O)o1 [Example 324, 5-chloro-2-(N-((1S,2R)-2-(6-fluoro-2-methyl-3-(1-methyl-1H-pyrazol-4-yl)phenyl)-1-(5-oxo-4,5-dihydro-1,3,4-oxadiazol-2-yl)propyl)sulfamoyl)benzamide] | 170 |
| CCc1ccc(F)c([C@@H](C)[C@H](NS(=O)(=O)c2ccc(Cl)c3c2OCCC3O)c2n[nH]c(=O)o2)c1C (single isomer, unassigned) [Example 239A] | 200 |
| Cc1c(Br)ccc(F)c1[C@@H](C)[C@H](NS(=O)(=O)c1ccc(Br)cc1C(N)=O)c1n[nH]c(=O)o1 [Example 35, 5-bromo-2-(N-((1S,2R)-2-(3-bromo-6-fluoro-2-methylphenyl)-1-(5-oxo-4,5-dihydro-1,3,4-oxadiazol-2-yl)propyl)sulfamoyl)benzamide] | 130 |
| COc1cc(Cl)ccc1S(=O)(=O)N[C@H](c1n[nH]c(=O)o1)[C@H](C)c1c(F)ccc(-c2cn(C)nc2C)c1C [Example 317, 4-chloro-N-((1S,2R)-2-(3-(1,3-dimethyl-1H-pyrazol-4-yl)-6-fluoro-2-methylphenyl)-1-(5-oxo-4,5-dihydro-1,3,4-oxadiazol-2-yl)propyl)-2-methoxybenzenesulfonamide] | 280 |
| COc1cc(N)ccc1S(=O)(=O)N[C@H](c1n[nH]c(=O)o1)[C@H](C)c1cccc2cccc(C)c12 [Example 269, 4-amino-2-methoxy-N-((1S,2R)-2-(8-methylnaphthalen-1-yl)-1-(5-oxo-4,5-dihydro-1,3,4-oxadiazol-2-yl)propyl)benzenesulfonamide] | 510 |
| Cc1ccc(F)c([C@@H](C)[C@H](NS(=O)(=O)c2ccc(Cl)c3c2OCCC3(C)O)c2n[nH]c(=O)o2)c1C (single isomer, unassigned) [Example 207A] | 130 |
| Cc1ccc(F)c([C@@H](C)[C@H](NS(=O)(=O)c2cccc3c2OC(C)(C)CC3O)c2n[nH]c(=O)o2)c1C (single isomer, unassigned) [Example 237A] | 290 |
| Cc1c(Cl)ccc(F)c1[C@@H](C)[C@H](NS(=O)(=O)c1ccc(Cl)c2c1OCCN2C)c1n[nH]c(=O)o1 [Example 289, 5-chloro-N-((1S,2R)-2-(3-chloro-6-fluoro-2-methylphenyl)-1-(5-oxo-4,5-dihydro-1,3,4-oxadiazol-2-yl)propyl)-4-methyl-3,4-dihydro-2H-benzo[b][1,4]oxazine-8-sulfonamide] | 130 |
| COc1ncc(-c2ccc(F)c([C@@H](C)[C@H](NS(=O)(=O)c3ccc(Cl)cc3OC)c3n[nH]c(=O)o3)c2C)cn1 [Example 319, 4-chloro-N-((1S,2R)-2-(6-fluoro-3-(2-methoxypyrimidin-5-yl)-2-methylphenyl)-1-(5-oxo-4,5-dihydro-1,3,4-oxadiazol-2-yl)propyl)-2-methoxybenzenesulfonamide] | 280 |
| COc1ccccc1-c1ccc(C(N)=O)c(S(=O)(=O)N[C@H](c2n[nH]c(=O)o2)[C@H](C)c2c(F)ccc(C)c2C)c1 [Example 345] | 250 |
| COc1c(S(=O)(=O)N[C@H](c2n[nH]c(=O)o2)[C@H](C)c2c(F)ccc3ccccc23)ccc(Cl)c1C(C)O (stereo partly drawn) [Example 205, 4-chloro-N-((1S,2R)-2-(2-fluoronaphthalene-1-yl)-1-(5-oxo-4,5-dihydro-1,3,4-oxadiazol-2-yl)propyl)-3-(1-hydroxyethyl)-2-methoxybenzenesulfonamide] | 80 |
| CCc1cccc([C@@H](C)[C@H](NS(=O)(=O)c2ccc(Cl)cc2OC)c2n[nH]c(=O)o2)c1C [Example 86, 4-chloro-N-((1S,2R)-2-(3-ethyl-2-methylphenyl)-1-(5-oxo-4,5-dihydro-1,3,4-oxadiazol-2-yl)propyl)-2-methoxybenzenesulfonamide] | 400 |
| Cc1cc(F)c(F)c([C@@H](C)[C@H](NS(=O)(=O)c2ccc(Cl)cc2C(N)=O)c2n[nH]c(=O)o2)c1C [Example 13, 5-chloro-2-(N-((1S,2R)-2-(2,3-difluoro-5,6-dimethylphenyl)-1-(5-oxo-4,5-dihydro-1,3,4-oxadiazol-2-yl)propyl)sulfamoyl)benzamide] | 140 |
| Cc1ccc(F)c([C@@H](C)[C@H](NS(=O)(=O)c2ccc(Cl)cc2C(C)O)c2n[nH]c(=O)o2)c1C (stereo partly drawn) [Example 236, 4-chloro-N-((1S,2R)-2-(6-fluoro-2,3-dimethylphenyl)-1-(5-oxo-4,5-dihydro-1,3,4-oxadiazol-2-yl)propyl)-2-(1-hydroxyethyl)benzenesulfonamide] | 380 |
| Cc1ccc(F)c([C@@H](C)[C@H](NS(=O)(=O)c2ccc(Cl)cc2-c2ccno2)c2n[nH]c(=O)o2)c1C [Example 91, 4-chloro-N-((1S,2R)-2-(6-fluoro-2,3-dimethylphenyl)-1-(5-oxo-4,5-dihydro-1,3,4-oxadiazol-2-yl)propyl)-2-(isoxazol-5-yl)benzenesulfonamide] | 230 |
| Cc1c(Cl)ccc(F)c1[C@@H](C)[C@H](NS(=O)(=O)c1ncc(Cl)cc1C(N)=O)c1n[nH]c(=O)o1 [Example 249, 5-chloro-2-(N-((1S,2R)-2-(3-chloro-6-fluoro-2-methylphenyl)-1-(5-oxo-4,5-dihydro-1,3,4-oxadiazol-2-yl)propyl)sulfamoyl)nitotinamide] | 100 |
| CC(=O)c1cc(Cl)ccc1S(=O)(=O)N[C@H](c1n[nH]c(=O)o1)[C@H](C)c1c(F)ccc(C)c1C [Example 147, 2-acetyl-4-chloro-N-((1S,2R)-2-(6-fluoro-2,3-dimethylphenyl)-1-(5-oxo-4,5-dihydro-1,3,4-oxadiazol-2-yl)propyl)benzenesulfonamide] | 270 |
| [2H]C([2H])([2H])C1(O)CCOc2c(S(=O)(=O)N[C@H](c3n[nH]c(=O)o3)[C@H](C)c3c(F)ccc(C)c3C)ccc(Cl)c21 (single isomer, unassigned) [Example 200B] | 80 |
| Cc1c(Br)ccc(F)c1[C@@H](C)[C@H](NS(=O)(=O)c1ccc(Cl)c2c1OCCC2O)c1n[nH]c(=O)o1 (single isomer, unassigned) [Example 243A] | 70 |
| Cc1ccc(F)c([C@@H](C)[C@H](NS(=O)(=O)c2cc(F)c(Cl)cc2C(N)=O)c2n[nH]c(=O)o2)c1C [Example 255, 5-chloro-4-fluoro-2-(N-((1S,2R)-2-(6-fluoro-2,3-dimethylphenyl)-1-(5-oxo-4,5-dihydro-1,3,4-oxadiazol-2-yl)propyl)sulfamoyl)benzamide] | 120 |
| Cc1ccc(F)c([C@@H](C)[C@H](NS(=O)(=O)c2ccc(Cl)c3c2OCCC3(O)C(F)(F)F)c2n[nH]c(=O)o2)c1C (single isomer, unassigned) [Example 220B] | 80 |
| Cc1cccc([C@@H](C)[C@H](NS(=O)(=O)c2ccc(Cl)c3c2OCC=C3)c2n[nH]c(=O)o2)c1C [Example 295, 5-chloro-N-((1S,2R)-2-(2,3-dimethylphenyl)-1-(5-oxo-4,5-dihydro-1,3,4-oxadiazol-2-yl)propyl)-2H-chromene-8-sulfonamide] | 790 |
